Source: patent US20260250318A1, “COMPOSITIONS AND METHODS FOR CROSSING THE BLOOD BRAIN BARRIER” (VOYAGER THERAPEUTICS, INC., priority 2022, published 2026)

Key:
[1] = system: brain; experiment: Matured TTM-001 and TTM-002 variants, NGS enrichment in mouse brain; type: in vivo, mice; settings: relative to AAV9 control
[2] = system: brains, heart, liver, muscle, and DRG of the NHPs; experiment: Maturation of TTM-001 and TTM-002 capsids, NGS enrichment in NHP tissues; type: in vivo; settings: relative to AAV9 control
Outline: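 Variants carry mutations within and flanking the loop IV peptide insert: positions 450–466 were triplet-randomized, while positions 449–466 received low-frequency point mutations. The combined pool went into two NHPs, and each peptide was scored by NGS enrichment ratio against AAV9.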

[3] = NGS fold-enrichment of matured AAV capsid variants, NHP brain, RNA
[4] = NGS fold-enrichment, brain of mice
[5] = NGS fold-enrichment, DRG of NHPs
[6] = NGS fold-enrichment, RNA, brain of NHPs
[7] = NGS fold-enrichment, heart of NHPs
[8] = NGS fold-enrichment, liver DNA of NHPs
[9] = NGS fold-enrichment, liver RNA of NHPs
[10] = NGS fold-enrichment, muscle of NHPs

Sequence | Fold Enrichment relative to AAV9, Brain (Mouse) ([1]; mouse brain) [fold] | Fold Enrichment relative to AAV9, Brain (NHP) [2, 3] [fold] | Fold Enrichment relative to AAV9, DRG (NHP) ([2]; NHP DRG) [fold] | Fold Enrichment relative to AAV9, Heart (NHP) ([2]; NHP heart) [fold] | Fold Enrichment relative to AAV9, Liver DNA (NHP) ([2]; NHP liver, DNA) [fold] | Fold Enrichment relative to AAV9, Liver RNA (NHP) ([2]; NHP liver, RNA) [fold] | Fold Enrichment relative to AAV9, Muscle (NHP) ([2]; NHP muscle) [fold] | Fold Enrichment relative to AAV9, Brain (Mouse) [1, 4] [fold] | Fold Enrichment relative to AAV9, DRG (NHP) [2, 5] [fold] | Fold Enrichment relative to AAV9, Brain (NHP) [2, 6] [fold] | Fold Enrichment relative to AAV9, Heart (NHP) [2, 7] [fold] | Fold Enrichment relative to AAV9, Liver DNA (NHP) [2, 8] [fold] | Fold Enrichment relative to AAV9, Liver RNA (NHP) [2, 9] [fold] | Fold Enrichment relative to AAV9, Muscle (NHP) [2, 10] [fold]
KTINGSGSPHSKAPSNQT | 87.951 | 52.680 | 1.494 | 4.762 | 0.208 | 0.330 | 0.003 |  |  |  |  |  |  | 
KTINGSGSPHSKAQAFHT |  |  |  |  |  |  |  | 86.268 | 0.033 | 70.159 | 0.000 | 0.119 | 0.762 | 0.058
KTINGSGSPHSKAQAIHT | 81.908 | 56.047 | 0.000 | 0.000 | 0.890 | 0.887 | 212.32 |  |  |  |  |  |  | 
KTINGSGSPHSKAQAIKT |  |  |  |  |  |  |  | 73.560 | 0.255 | 74.261 | 0.000 | 0.132 | 0.186 | 0.000
KTINGSGSPHSKAQAITT | 75.250 | 56.924 | 0.000 | 0.000 | 0.438 | 1.239 | 0.000 |  |  |  |  |  |  | 
KTINGSGSPHSKAQAKGT | 104.917 | 51.727 | 0.048 | 0.016 | 0.525 | 0.271 | 0.000 |  |  |  |  |  |  | 
KTINGSGSPHSKAQAKLT |  |  |  |  |  |  |  | 130.132 | 0.000 | 71.154 | 0.273 | 0.777 | 1.591 | 0.017
KTINGSGSPHSKAQAMHT |  |  |  |  |  |  |  | 84.056 | 0.000 | 62.756 | 0.000 | 0.393 | 0.976 | 0.010
KTINGSGSPHSKAQAPAT |  |  |  |  |  |  |  | 127.420 | 0.000 | 61.934 | 0.169 | 0.197 | 0.696 | 0.015
KTINGSGSPHSKAQAPST |  |  |  |  |  |  |  | 115.528 | 0.200 | 60.696 | 0.005 | 0.263 | 0.751 | 0.000
KTINGSGSPHSKAQDRPT |  |  |  |  |  |  |  | 66.800 | 0.132 | 70.831 | 0.006 | 0.379 | 0.039 | 0.000
